From patent publication US20240099344A1, “HYDROXY- AND METHOXY-SUBSTITUTED FLAVONOIDS AND THEIR USE” (Firmenich SA, priority 2021, published 2024) come the findings set out here.

Test [1] deals with human sensory panel (sweet, bitter or astringent taste). The test is described as follows: Sensory testing in model bases (human sensory panel, 20 trained panelists). The format is in vivo. The conditions noted are these: 10 ppm; scale of −5 (strong masking effect) to 5 (strong enhancing effect); 0 = reference water solution containing 4% sucrose or 10 ppm mixture of Limonin, Naringin and Nomilin. The text has this:
Certain HMF compounds were tasted by a human sensory panel to assess their ability to reduce bitterness, reduce astringency, and enhance sweetness. The panel consisted of 20 trained panelists evaluating the samples at 10 ppm for taste properties (sweet, bitter or astringent) on a scale of −5 to 5 (−5 denoted strong masking effect and 5 denoted strong enhancing effect, 0 being the intensity of a reference water solution containing 4% sucrose or 10 ppm mixture of Limonin, Naringin and Nomilin).

Test [2] relates to human sensory panel (bitter and astringent taste). The test is described as follows: Sensory testing in applications (human sensory panel, 8 experts). The format is in vivo. The note with it: scale of −5 (strong masking) to 5 (strong enhancing), 0 = reference application; for Smart Protein Beverage Astringent / Smart Protein Beverage Bitter / Smart Protein Beverage Off-flavor: 10 ppm in smart protein beverage. The text has this: Certain HMF compounds were tasted by a human sensory panel to assess their ability to reduce bitterness and astringency. The panel consisted of 8 experts evaluating the samples at 10 ppm for taste properties (bitter and astringent) on a scale of −5 to 5 (−5 denoted strong masking effect and 5 denoted strong enhancing effect, 0 being the intensity of a reference application in coffee, tea or pomegranate juice, smart protein beverage).

For `COc1ccc(-c2cc(=O)c3c(O)c(OC)c(O)c(OC)c3o2)cc1` [Compound 101, 5,7-dihydroxy-6,8,4′-trimethoxyflavone], in test [1], the Astringency is reported as −1.21, the Bitterness is given as −1.59 and the Sweetness is on record as −0.23. Also, in test [2] (10 ppm in coffee), the “Coffee Astringency” value was determined as 0.17 and the “Coffee Bitterness” value is reported as −0.58. In test [2] (10 ppm in pomegranate juice), the “Pomegranate Juice Astringency” value is reported as 0.67 and the “Pomegranate Juice Bitterness” value is 0.31. In test [2], the “Smart Protein Beverage Astringent” value was 0.4, the “Smart Protein Beverage Bitter” value is recorded as −0.6 and the “Smart Protein Beverage Off-flavor” value was −0.1. Moreover, in test [2] (10 ppm in tea), the “Tea Astringency” value amounted to 1.00 and the “Tea Bitterness” value was determined as 0.83.

Regarding `O=c1cc(-c2ccc(O)cc2)oc2cc(O)c(O)c(O)c12` [Compound 103, 5,6,7,4′-tetrahydroxyflavone], in test [1], the Astringency is listed as −0.35, the Bitterness is on record as −1.28 and the Sweetness amounted to 0.50. In addition, in test [2], the “Smart Protein Beverage Astringent” value is 0.25, the “Smart Protein Beverage Bitter” value is 0.00 and the “Smart Protein Beverage Off-flavor” value was −0.50.

Consider `COc1c(O)cc2oc(-c3ccccc3)cc(=O)c2c1O` [Compound 104, 5,7-dihydroxy-6-methoxyflavone], for which, in test [1], the Astringency is listed as −0.48, the Bitterness is given as −1.08 and the Sweetness is 0.17.

For the compound `COc1ccc(-c2cc(=O)c3c(O)c(OC)c(O)cc3o2)cc1OC` [Compound 105, 5,7-dihydroxy-6,3′,4′-trimethoxyflavone], in test [1], the Astringency is on record as −0.53, the Bitterness is given as −2.02 and the Sweetness was found to be 0.58. In addition, in test [2], the “Smart Protein Beverage Astringent” value was −1.0, the “Smart Protein Beverage Bitter” value was −0.80 and the “Smart Protein Beverage Off-flavor” value is reported as −0.80.

For the compound `COc1cc(-c2oc3cc(O)cc(O)c3c(=O)c2O)ccc1O` [Compound 106, 3,4′,5,7-tetrahydroxy-3′-methoxyflavone], in test [1], the Astringency was −0.34, the Bitterness is −1.47 and the Sweetness came out at 0.58.

With `COc1cc(O)cc2c1C(=O)CC(c1ccccc1)O2` (stereo not drawn) [Compound 107, 5-methoxy-7-hydroxyflavanone], in test [1], the Astringency was −1.56, the Bitterness was −2.56 and the Sweetness worked out at 0.08.

For `COc1ccc(-c2oc3cc(OC)c(OC)c(O)c3c(=O)c2OC)cc1O` [Compound 108, 3,6,7,4′-tetramethoxy-5,3′-dihydroxyflavone], in test [1], the Astringency is on record as −1.01, the Bitterness is given as −1.94 and the Sweetness was −0.08. Moreover, in test [2], the “Smart Protein Beverage Astringent” value is recorded as −0.33, the “Smart Protein Beverage Bitter” value was −0.42 and the “Smart Protein Beverage Off-flavor” value is −0.33.

In the case of `COc1c(O)cc(O)c2c(=O)cc(-c3ccccc3)oc12` [Compound 109, 5,7-dihydroxy-8-methoxyflavone], in test [1], the Astringency is −0.64, the Bitterness is given as −1.54 and the Sweetness is −0.58.
